Literature values, collected in patent publication EP3854219A1, “EDIBLE AND WATER-SOLUBLE CHEWABLE TOY FOR ANIMALS, IN PARTICULAR FOR THE RELEASE OF ACTIVE INGREDIENTS” (New Project S.r.l., priority 2020, dated 2021).

System: rats
Settings: oral ingestion

For `CO` [methanol], the LD50 is listed as 5628 mg/kg.
